Experimental data reported in the METLIN SMRT retention time set (Domingo-Almenara et al. 2019).

Assay: gradient 5% acetonitrile 3 min, to 50% in 2 min, to 85% in 15 min, held 3 min, 100 µL/min
Details: column: Zorbax Extend-C18 2.1 x 50 mm; eluents: water / acetonitrile, 0.1% formic acid
In short: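 Retention times come from adduct peaks that were picked computationally and then checked by hand. The standards, pure and pooled in mixtures of ~100 molecules, were run on a Zorbax Extend-C18 column (2.1 × 50 mm, 1.8 μm) at 100 μL/min with water and acetonitrile, each with 0.1% formic acid. Detection was by quadrupole time-of-flight mass spectrometry in positive and negative ionization mode, with a dead volume of 40 μL and a dwell volume of 900 μL.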

Row | Compound | RP-LC retention time
1 | COC(=O)c1ccccc1NC(=O)CSc1cc(N2CCN(c3ccccc3F)CC2)ncn1 | 1170 s
2 | Cc1ccc(NCCCc2ccccc2)c(N)c1 | 728 s
3 | CC(=O)N1c2ccc(S(=O)(=O)N3CCCCCC3)cc2CC1C(=O)NCc1ccc(C)cc1 (centres undefined) | 929 s
4 | Cc1cc(C)cc(NS(=O)(=O)c2c(C)sc(C)c2-c2n[nH]c(C)c2C)c1 | 1110 s
5 | Fc1ccc(-c2ccc(CNCCCn3ccnc3)o2)cc1Cl | 585 s
6 | CS(=O)(=O)N1CCn2nc(-c3cccs3)cc21 | 681 s
7 | O=C1NCCCn2cc(S(=O)(=O)N3CCN(c4cccc(Cl)c4)CC3)cc21 | 804 s
8 | COc1ccc(-c2csc(NC(=O)COc3ccccc3Cl)n2)cc1Br | 1220 s
9 | O=C(NCCC1=CCCCC1)C1CCc2ncc(-c3ccsc3)n2C1 (centres undefined) | 601 s
10 | COc1ccc(S(=O)(=O)N2CC3CN(C(=O)C4CCCCC4)CC(C2)O3)cc1 | 850 s
11 | Cc1ccc(Nc2c(-c3ccc(C)cc3)nc3ccc(C)cn23)cc1 | 797 s
12 | CCOc1cc(=O)c(C(=O)N2CCC(C(N)=O)CC2)nn1-c1ccc(C)cc1 | 610 s
13 | COc1cccc(CNC(=O)C2CCCN(C(=O)c3[nH]c(C)c(C(=O)OC(C)C)c3C)C2)c1 (centres undefined) | 845 s
14 | COc1ccc(-c2nnc(-c3ccc(C)c(S(=O)(=O)N4CCCC4)c3)o2)cc1OC | 937 s
15 | COc1ccccc1N1CCN(c2cc(SCC(=O)Nc3ccc(C)cc3C)ncn2)CC1 | 1040 s
16 | CCN1CCN(CCCNS(=O)(=O)c2cccc(-c3nc(-c4ccc(C)cc4)no3)c2)CC1 | 690 s
17 | CCCCc1ccc(Nc2c(C(=O)N3CCSCC3)cnc3nc(C)ccc23)cc1 | 723 s
18 | CCN(CC)CCCNC(=O)C(C)n1c(=O)c(C(F)(F)F)nc2cc(C)c(C)cc21 (centres undefined) | 740 s
19 | O=C(CN1CCN(Cc2ccc(F)cc2)C1=O)NCC1CCCCC1 | 854 s
20 | COCCNC(=O)Cc1csc(SCC(=O)c2cccs2)n1 | 669 s
21 | CCCn1c(CCc2ccccc2NS(=O)(=O)CCC)nc2ccccc21 | 708 s
22 | CCn1c(=O)oc2cc(-c3noc(-c4ccc(C(F)(F)F)cc4)n3)ccc21 | 1220 s
23 | Cc1ccc(NC(=O)C2CCN(S(=O)(=O)c3c(C)[nH]c(C)c3C(=O)N3CCCC3)CC2)c(C)c1 | 729 s

Row | Compound | RP-LC retention time
24 | O=C(c1ccoc1)N1CC(F)(F)C[C@H]1c1nnc(-c2ccncc2)o1 | 668 s
25 | Cc1nnsc1C(=O)Nc1ccc([N+](=O)[O-])cc1C(F)(F)F | 868 s
26 | CN(CC1CCOCC1)C(=O)Cc1ccccc1Cl | 771 s
27 | CNC(=O)c1ccc(-c2nc3cc(NS(=O)(=O)c4cnc[nH]4)ccc3n2C)cc1 | 548 s
28 | Cc1cc(N2CCCCC2)n2nc(CN3CCN(c4ccccc4F)CC3)nc2n1 | 673 s
29 | O=C(Cc1csc(NC(=O)C2CC2)n1)NCc1ccccn1 | 519 s
30 | Cc1nc(-c2cc3ccccc3nc2N2CCN(c3ccc(F)cc3)CC2)no1 | 1110 s
31 | COc1ccc(NC(=O)N2CCc3nc(-c4ccc(F)cc4)ncc3C2)cc1 | 906 s
32 | CN(Cc1cccs1)C(=O)Nc1ccccc1 | 833 s
33 | COc1c(C(=O)NC(C)C)sc2cccc(F)c12 | 968 s
34 | CC(C)(C)c1csc(-c2csc(S(=O)(=O)NCc3ccc(F)c(Cl)c3)c2)n1 | 1280 s
35 | CN1C(=O)c2cc(C(=O)Nc3cccc(Cl)c3)nn2CC1(C)C(=O)NC1CCCCC1 (centres undefined) | 860 s
36 | CCC(C)NC(=O)Cn1cccc(-c2nc(-c3ccc(C)cc3)no2)c1=O (centres undefined) | 814 s
37 | Cc1nnc(-c2ccc3ccn(CC(=O)Nc4ccc5c(c4)OCCO5)c3c2)o1 | 756 s
38 | O=C(Cn1cccc1-c1nc(-c2ccc3c(c2)OCO3)no1)Nc1ccc(F)c(Cl)c1 | 1030 s
39 | CC(C)Cn1c(=O)c(C(=O)NCCN2CCCCC2)nc2cccnc21 | 552 s
40 | COc1ccccc1OC(C)C(=O)N(Cc1ccc(C)o1)C1CCS(=O)(=O)C1 (centres undefined) | 847 s
41 | CCc1ccc(-n2c(CN3CCN(C(=O)NCC4CCCO4)CC3)nc3cccnc32)cc1 (centres undefined) | 636 s
42 | Cc1noc2nc(C)n(CC(=O)Nc3ccc(F)cc3)c(=O)c12 | 765 s
43 | COc1ccc2[nH]cc(C3=CCNCC3)c2c1 | 648 s
44 | COc1ccc(C(=O)NC2CCN(c3cc(-c4ccc(Cl)cc4)[nH]n3)C2)c(OC)c1 (centres undefined) | 754 s
45 | COCCN1[C@@H]2CCN(C(=O)Nc3ccccc3F)C[C@@]2(C(=O)N2CCOCC2)CCS1(=O)=O | 676 s
46 | Nc1ccc(CC(CC(=O)O)C(=O)O)cc1 (centres undefined) | 850 s

Row | Compound | RP-LC retention time
47 | CCn1nccc1-c1cccc(-c2noc(-c3ccc(C#N)cc3)n2)c1 | 1140 s
48 | Cc1cc(C(=O)NCc2cccnc2)c2cc(Br)ccc2n1 | 588 s
49 | CCOC(=O)C1=C(CN2CCN(C)CC2)NC(=O)NC1c1cccc(OC)c1OC (centres undefined) | 595 s
50 | CCCCc1ccc(NC(=O)CSc2nccc(N3CCCC3)n2)cc1 | 803 s
51 | Cc1ccc(S(=O)(=O)N2CCCC2C(=O)Nc2ccc(C)cc2C)cc1 (centres undefined) | 969 s
52 | O=C(c1cccn1Cc1noc(C2CC2)n1)N1CCc2ccccc21 | 982 s
53 | O=C(C1CCN(c2cc(N3CCCCC3)ncn2)CC1)N1CCCCCC1 | 661 s
54 | Cc1ccc(C)c(CNC(=O)c2nnc(-c3ccc(S(=O)(=O)N4CCC(C)CC4)cc3)o2)c1 | 1160 s
55 | Cn1cc(CN2CCC(C(=O)NCCCc3ccccc3)CC2)c2cc(Cl)ccc21 | 753 s
56 | CCc1ccc(-c2noc(-c3nnn(Cc4nc(-c5ccccc5OC)oc4C)c3C)n2)cc1 | 1270 s
57 | O=C(NCc1ccc(F)cc1F)c1ccc2c(c1)nc1n2CCN(C2CCCCC2)C1=O | 806 s
58 | COC(=O)C1=CN(c2ccc(F)c(F)c2)c2cc(F)ccc2S1(=O)=O | 860 s
59 | Cc1c(S(=O)(=O)N2CCC(C(=O)NCc3csc(-c4ccccc4)n3)CC2)cnn1C(F)F | 868 s
60 | CCOC(=O)c1cnc2nc(C)ccc2c1Nc1cc(OC)ccc1OC | 709 s
61 | CCOC(=O)c1c(S(=O)(=O)N2CCC(C(=O)Nc3ccccc3OC)CC2)c(C)n(CC)c1C | 891 s
62 | Cc1ccc(Nc2c(-c3cccc(Br)c3)nc3ccc(Br)cn23)cc1 | 1140 s
63 | Cc1ccc(NC(=O)Cn2c(N)nc(C)c(C)c2=O)cc1 | 611 s
64 | CCOc1ccc(NC(=O)C2CC(=O)N(c3ccc4c(c3)CCN4C(C)=O)C2)cc1 (centres undefined) | 750 s
65 | CCOC(=O)c1c(C)[nH]c(C(=O)N2CCCC(C(=O)NCCN3CCCCCC3)C2)c1C (centres undefined) | 578 s
66 | CCN1CCN(c2ncc3c(n2)CCN(Cc2ccc(OC)c(OC)c2OC)C3)CC1 | 547 s
67 | CN1C(=O)[C@H]2CN(Cc3ccc(C#N)cc3)C[C@H]2C1=O | 574 s
68 | COC(=O)c1ccc(-c2nc3cnccn3c2Nc2ccc(C(C)C)cc2)cc1 | 1070 s
69 | CCC(=O)N(C1CCOCC1)C1CCN(S(=O)(=O)c2ccc(CC)cc2)CC1 | 908 s

Row | Compound | RP-LC retention time
70 | Cc1cc(C)c2[nH]c3c(c(=O)c2c1)CN(CC(=O)Nc1ccc2c(c1)OCCO2)CC3 | 604 s
71 | Cc1cc(NC(=O)c2ccc3c(c2)CCCC3)n(C(C)C)n1 | 835 s
72 | CCCc1cc(N2CCN(C(=O)c3ccc(OC)nc3)CC2)nc2nnc(CC)n12 | 623 s
73 | O=C(Cc1ccccc1F)N1C[C@H]2CNC(=O)[C@]23CCCC[C@@H]13 | 683 s
74 | COc1ccc(SCC(=O)Nc2c3c(nn2C)CCC3)cc1 | 687 s
75 | C[C@H](Cc1ccccc1)Nc1ncnc2c1ncn2[C@@H]1O[C@H](CO)[C@H](O)C1O (some centres undefined) | 696 s
76 | COc1cccc(-c2nc(Cn3ccn4nc(-c5ccc(F)cc5)cc4c3=O)c(C)o2)c1OC | 1080 s
77 | N#Cc1ccc(-c2nc(-c3ccc4c(c3)ncn4CCN3CCCC3)no2)cc1 | 638 s
78 | CCN1C(=O)C(C)(C(=O)NCc2ccccc2)Oc2cccnc21 (centres undefined) | 812 s
79 | COCC(=O)N1CCC(N2C[C@H](O)C[C@H]2C(=O)NC2CCCCC2)CC1 | 573 s
80 | CC(C)CCNC(=O)C1(C)CN(S(=O)(=O)c2ccccc2)CC(=O)N1CCCc1ccccc1 (centres undefined) | 1050 s
81 | O=c1n(CC2CC2)nc2n1CCN(Cc1cccc(O)c1)C2 | 610 s
82 | CC(=O)N1CCc2sc(S(=O)(=O)N3CCN(c4cccc(Cl)c4)CC3)cc2C1 | 957 s
83 | COc1ccc(Nc2cc(C)nc(N)n2)cc1 | 644 s
84 | CCC(=O)N1CCc2cc(CNS(=O)(=O)c3ccc(OC)cc3)ccc21 | 812 s
85 | CCn1cc(C)c(C(=O)O)c1CC(=O)N1CCC(N2CCCCC2)CC1 | 587 s
86 | COc1ccc(-c2c(C)noc2NC(C)=O)cc1S(=O)(=O)Nc1ccc(F)c(F)c1 | 748 s
87 | CCNC(=O)N1[C@H]2CC[C@@H]1c1cnc(-c3ccccc3)nc1C2 | 735 s
88 | COC(=O)c1ccc(CN2CCC(c3nnc(C(F)(F)F)o3)CC2)o1 | 560 s
89 | CN1CCCc2cc(C(CNC(=O)C(=O)NCc3ccc(F)cc3)N3CCOCC3)ccc21 (centres undefined) | 569 s
